# Experimental data from patent publication US6083976A, “Method of synthesis of derivatives of aloesin” (Univera Pharmaceuticals, Inc., priority 1999, dated 2000).
# Read-outs that look alike come from different tables or passages of the source.
# How the values were obtained:
# tyrosinase [1] = settings: cited from earlier work
# [2] = relative to hydroquinone; cited from earlier work
# tyrosinase [3] = test: Tyrosinase activity assay using L-DOPA as a substrate; type: biochemical; settings: for IC50: L-DOPA 0.4 mM, 48 U tyrosinase, absorbance at 475 nm, read-out: average concentration for 50% tyrosinase inhibition
# Protocol: Example 2 illustrates the general method for determination of tyrosinase inhibition by the alkylated aloesins, using octylaloesin for purposes of illustration.
# A tyrosinase activity assay was performed using L-DOPA as a substrate. Each 750 μL assay mixture contained KH2 PO4 /K2 HPO4 at a concentration of 50 mM, L-DOPA at a concentration of 0.4 mM, 48 U of tyrosinase activity (tyrosinase obtained from SIGMA at 4,400 U/mg), and varying concentrations of the inhibitor being tested. The progress of the reaction was monitored by measuring the absorbance of the reaction mixture at 475 nm.
SMILES,mode of tyrosinase inhibition (Lineweaver Burk diagram) (tyrosinase [1]),"quantity required to achieve a similar effect, compared to the quantity of hydroquinone used [2]",IC50 (tyrosinase [3]) [µM],other results
"COc1cc(/C=C/C(=O)O[C@@H]2[C@@H](O)[C@H](O)[C@@H](CO)O[C@H]2c2c(O)cc(C)c3c(=O)cc(CC(C)=O)oc23)ccc1O [2""-O-feruloylaloesin]",non-competitive inhibitors of tyrosinase,–,–,–
O=C1O[C@H]([C@@H](O)CO)C(O)=C1O [ascorbic acid],–,17 times,–,–
CC(=O)Cc1cc(=O)c2c(C)cc(O)c([C@@H]3O[C@H](CO)[C@@H](O)[C@H](O)[C@H]3O)c2o1 [Aloesin],non-competitive inhibitors of tyrosinase,–,250,"IC50 (tyrosinase [1]; substrate L-DOPA, read-out: concentration for 50% inhibition of tyrosinase activity): 200 µM"
CCCCCCCCOc1cc(C)c2c(=O)cc(CC(C)=O)oc2c1[C@@H]1O[C@H](CO)[C@@H](O)[C@H](O)[C@H]1O [Octylaloesin],–,–,107,fold more potent as a tyrosinase inhibitor than aloesin (tyrosinase [3]; ratio of 50% inhibition concentrations): approximately 2.3 fold
OC[C@H]1O[C@@H](Oc2ccc(O)cc2)[C@H](O)[C@@H](O)[C@@H]1O [arbutin],–,over 100 times,–,–
